Measurements published in article PMC4782163, “A Novel Pentapeptide Targeting Integrin β3-Subunit Inhibits Platelet Aggregation and Its Application in Rat for Thrombosis Prevention” (Frontiers in Pharmacology, 2016).
Where two headings read alike, the source gives them in different places. Where a SMILES comes first, the peptide text is derived from it.

What was measured:
[1] = system: Kunming mice
Procedure: Kunming mice (n = 6 for each group) were intravenously injected with different concentrations of P1Cm, ranging from 0.075 to 6 mmol/kg (10x IC90), or tirofiban ranging from 0.025 to 2 mmol/kg (10x IC90). Blood pressure and breath were monitored after injection, and the mesentery were observed under microscope after the animals were sacrificed. Mortality within the next 3 days was recorded.

[2] = system: carotid arterial thrombosis; test: Ferric chloride-induced carotid arterial thrombosis model (CDFI, pathology); assay type: in vivo, rat; conditions: 0.15 mmol/kg tail vein, Wistar rats, n = 6, mean ± SD
Procedure: Thirty male Wistar rats (250–300 g) were randomly divided into five groups: high-, middle-, and low-dose treated groups of P1Cm, a saline group, and a tirofiban group (n = 6 per group). The rats were operated on the right common carotid artery (Bird et al., [2008]). Briefly, the rat was first anesthetized by an intraperitoneal injection of ketamine (100 mg/kg). The fascia was bluntly dissected to expose the right common carotid artery immediately after a dosage of 0.15, 0.30, or 0.45 mmoL/kg of P1Cm, 0.15 mmoL/kg of tirofiban, or an equal volume of saline applied accordingly via tail vein injection. A 3 × 4 mm piece of filter paper saturated with ferric chloride (10% solution) was placed under the right carotid artery for 20 min and then removed. Thrombus size and blood flow were detected by color Doppler flow imaging (CDFI) (13 MHz phased-array transducer, LOGIQ S6 Color Doppler Ultrasonographer, GE, USA; Chua et al., [2012]). The animals were kept anesthetized during the CDFI measurements.
To obtain fresh samples immediately after measurement, the animals were sacrificed through an intravenous injection of air, and the injured carotid artery was collected for pathological examination. Carotid artery samples were fixed with 10% neutral buffered formalin and embedded in paraffin wax for routine histological analysis with hematoxylin and eosin staining. Morphometric analysis was carried out using a Leica Q500/W microscope (Leica Microsystems, Wetzlar, Germany). The antithrombosis effect was evaluated by calculating the percentage of carotid artery area covered by the thrombus (Hosokawa et al., [2011]).

[3] = system: plasma coagulation; test: Coagulation parameters in plasma (FIB, TT, PT, APTT)
[4] = system: artery-vein shunt thrombus formation; test: Artery-vein shunt thrombosis model; assay type: in vivo, rat
Procedure: Fifty male Wistar rats (250–300 g) were randomly divided into five groups: high-, middle-, and low-dose groups of P1Cm, a saline group, and a tirofiban group (n = 10 per group). The animals were treated with the same concentrations as in the previous thrombosis model, 0.15, 0.30, or 0.45 mmoL/kg of P1Cm, 0.15 mmoL/kg of tirofiban, or an equal volume of saline by tail vein injection after being anesthetized by an intraperitoneal injection of ketamine (100 mg/kg). The operation was carried out as previously reported (Sato et al., [1998]; Jing et al., [2011]). Briefly, the right carotid and left jugular veins were separated. An 8 cm silk thread was placed inside a polyethylene tube filled with heparin sodium solution (50 IU/mL). The right carotid and left jugular veins were connected with the tube. One end of the tube containing the thread was inserted into the left jugular vein, and the other end was inserted into the right carotid artery. Blood was allowed to flow from the right carotid artery to the left jugular vein through the polyethylene tube for 15 min. The tube was then removed, and the weight of the attached wet thrombus on the thread was measured immediately. The rats were sacrificed through an intravenous injection of air.

[5] = dosage IC50 (P1Cm 0.075, tirofiban 0.025 mmol/kg), i.v., n = 6, within 3 days
[6] = dosage IC90, i.v., n = 6, within 3 days

CC[C@H](C)[C@H](N)C(=O)N[C@@H](CCCNC(=N)N)C(=O)N[C@H](C(=O)N1CCC[C@H]1C(=O)N[C@@H](CCCCN)C(=O)O)[C@@H](C)O [Peptide P1Cm] (H-IRTPK-OH)
Mortality [1, 5]: 0 | Mortality [1, 6]: 0 | Mortality ([1]; mouse, in vivo, iv): 0

CCCCS(=O)(=O)N[C@@H](Cc1ccc(OCCCCC2CCNCC2)cc1)C(=O)O [Tirofiban]
PSFV (peak systolic flow velocity) [2]: 84.2 ± 3.50 cm/s | Thrombosis SIZE/area [2]: 0.007 ± 0.001^* cm^2 | VSR (vascular stenosis rate) [2]: 28.25 ± 5.83 % | Effect on coagulation parameters ([3]; 0.15 mM, P < 0.05): apparently inhibited the coagulation and affected the parameters | FIB ([3]; tirofiban group (0.15 mM), 5 min 37°C): 4.23 ± 0.71 g/L | Mortality ([1]; dosage 10x IC90 (P1Cm 6, tirofiban 2 mmol/kg), i.v., n = 6, within 3 days): 2/6 | Mortality [1, 5]: 0 | Mortality [1, 6]: 0/6 | EMW (thrombosis wet weight) ([4]; 0.15 mmol/kg tail vein, Wistar rats, 15 min shunt, n = 10, mean ± SD): 27.51 ± 4.03 mg | Decrease of thrombus weight vs saline group ([4]; 0.15 (mM in the source), rats): 39.92%
